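48-hour exposure; five concentrations; linearly interpolated endpoints. The concentration for full growth arrest is given as TGI.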 Where a SMILES comes first, the peptide text is derived from it. [ ]: non-standard residue; d: D form. pGlu = O=C1CC[CH](C(=O)O)N1
Columns and labels:
Test in all cases: NCI anticancer screen, dose series, 48 h
[1] = tested on: IGROV1 ovarian
[2] = tested on: T-47D breast
[3] = tested on: SK-MEL-28 melanoma
[4] = tested on: RXF 393 renal
[5] = tested on: SK-MEL-2 melanoma
[6] = tested on: NCI-H23 lung
[7] = tested on: KM12 colon
[8] = tested on: LOX IMVI melanoma
[9] = tested on: M14 melanoma
[10] = tested on: HCT-116 colon
[11] = tested on: UACC-257 melanoma
[12] = tested on: UO-31 renal
[13] = tested on: BT-549 breast

Structure (SMILES) | TGI [1] | TGI [2] | TGI [3] | TGI [4] | TGI [5] | TGI [6] | TGI [7] | TGI [8] | TGI [9] | TGI [10] | TGI [11] | TGI [12] | TGI [13]
Fc1cc(C2=Nn3c(COc4ccccc4Cl)nnc3S/C2=C\c2ccc(Cl)cc2)c(Cl)cc1Cl | 33 µM | > 100 µM | 13.4 µM | 28 µM | 32.3 µM | 6.33 µM | 19.6 µM | 25.2 µM | 17 µM | 26.1 µM | > 100 µM | 93.8 µM | –
COC(=O)c1cc2c(c(C(=O)OC)c1)CCC2 | > 100 µM | > 100 µM | > 100 µM | > 100 µM | > 100 µM | > 100 µM | – | > 100 µM | > 100 µM | > 100 µM | > 100 µM | > 100 µM | –
COC(=O)c1ccc(NCc2cc(OC)ccc2OC)cc1 | > 100 µM | – | > 100 µM | – | > 100 µM | > 100 µM | > 100 µM | > 100 µM | > 100 µM | > 100 µM | > 100 µM | > 100 µM | > 100 µM
COc1ccc(S(=O)(=O)Nc2ccc(-c3csc(N4C(=O)/C(=C/c5ccccc5[N+](=O)[O-])N=C4c4ccccc4)n3)cc2)cc1Cl | > 100 µM | 75.2 µM | > 100 µM | > 100 µM | > 100 µM | 76.8 µM | > 100 µM | > 100 µM | > 100 µM | > 100 µM | > 100 µM | 73.8 µM | –
NC(=S)N1N=C2CCCCCC[C@@H]2[C@H]1c1ccccc1 | > 100 µM | – | > 100 µM | > 100 µM | > 100 µM | > 100 µM | > 100 µM | > 100 µM | > 100 µM | > 100 µM | > 100 µM | > 100 µM | –
COc1ccc(C(=O)/C=C/c2ccc(OCCCCCCCCCCOc3ccc(/C=C/C(=O)c4ccc(OC)cc4)cc3)cc2)cc1 | > 100 µM | > 100 µM | > 100 µM | > 100 µM | > 100 µM | – | > 100 µM | – | > 100 µM | > 100 µM | > 100 µM | > 100 µM | –
O=P1(c2ccccc2)C(c2ccccc2)CCC1c1ccccc1 (centres undefined) | > 100 µM | – | > 100 µM | > 100 µM | – | > 100 µM | > 100 µM | > 100 µM | > 100 µM | > 100 µM | > 100 µM | > 100 µM | 85.5 µM
CC(C)(C)C1=CC(=N/N=c2\scc(-c3ccccc3)n2-c2ccccc2)C=C(C(C)(C)C)C1=O | > 100 µM | – | > 100 µM | > 100 µM | > 100 µM | > 100 µM | > 100 µM | > 100 µM | > 100 µM | > 100 µM | > 100 µM | > 100 µM | –
CCOP(=O)(CC(=O)C1CC1)OCC | > 100 µM | > 100 µM | > 100 µM | – | > 100 µM | > 100 µM | > 100 µM | > 100 µM | > 100 µM | > 100 µM | > 100 µM | > 100 µM | > 100 µM
COC(=O)CCc1ccc(CCC(=O)OC)cc1 | > 100 µM | > 100 µM | > 100 µM | > 100 µM | > 100 µM | > 100 µM | – | > 100 µM | > 100 µM | > 100 µM | > 100 µM | > 100 µM | –
CC1CCN(C(C)C)P(=S)(Cc2ccccc2)O1 (centres undefined) | > 100 µM | 56.8 µM | 40 µM | – | > 100 µM | > 100 µM | > 100 µM | > 100 µM | > 100 µM | > 100 µM | > 100 µM | > 100 µM | > 100 µM
CCn1c(SCC(=O)N/N=C2\SCC(=O)N2c2ccc(C)cc2)nc2ccccc2c1=O | 43.2 µM | 54.9 µM | 48.7 µM | 53.8 µM | > 100 µM | 42.2 µM | 47.3 µM | 55.6 µM | > 100 µM | 35.9 µM | 35.3 µM | 30.3 µM | –
COc1ccc2[nH]cc(CCNC(=O)[C@H](Cc3ccc(O)cc3)NC(=O)[C@@H](NCC(F)(F)F)C(C)C)c2c1 | > 100 µM | – | > 100 µM | > 100 µM | > 100 µM | > 100 µM | > 100 µM | > 100 µM | > 100 µM | > 100 µM | > 100 µM | > 100 µM | > 100 µM
CCOC(=O)C1(C(=O)OCC)C(C(C)(C)C)=C(C)c2ccccc21 | 36 µM | – | 26.2 µM | 26.6 µM | 37.6 µM | 30.4 µM | 25.9 µM | 25 µM | 39.5 µM | 20.2 µM | 44.3 µM | 47.3 µM | –
CC(NC(=O)C1CCC(=O)N1)C(=O)N1CCCC1C(N)=O (stereo not drawn) ([pGlu]-Ala-Pro-NH2; configuration not given here) | > 100 µM | > 100 µM | > 100 µM | > 100 µM | – | > 100 µM | > 100 µM | > 100 µM | > 100 µM | > 100 µM | – | > 100 µM | > 100 µM
CC(C)C1CSC2N1C(=O)C2(OCc1ccccc1)C1CC1 (centres undefined) | > 100 µM | > 100 µM | > 100 µM | > 100 µM | – | > 100 µM | > 100 µM | > 100 µM | > 100 µM | > 100 µM | > 100 µM | > 100 µM | > 100 µM
Cc1nc(OCc2ccccc2)c2ncn(CCO)c2n1 | > 100 µM | – | > 100 µM | > 100 µM | > 100 µM | > 100 µM | > 100 µM | > 100 µM | > 100 µM | > 100 µM | > 100 µM | > 100 µM | > 100 µM
CC(C)(C)c1ccc2c(c1)OP1(Oc3c(Cl)cc(Cl)c4cccnc34)(O2)Oc2ccc(C(C)(C)C)cc2O1 | 25.7 µM | – | 28.4 µM | 30 µM | 22.8 µM | 21.8 µM | 20.4 µM | 19.2 µM | – | 17.4 µM | 14.2 µM | 19.6 µM | –
S=P1(Sc2ccccc2)Oc2ccc3ccccc3c2-c2c(ccc3ccccc23)O1 | > 100 µM | – | > 100 µM | > 100 µM | > 100 µM | > 100 µM | > 100 µM | > 100 µM | – | > 100 µM | > 100 µM | > 100 µM | –
